Data reported in ChEMBL document CHEMBL1128916, “Phosphoramidate derivatives of d4T with improved anti-HIV efficacy retain full activity in thymidine kinase-deficient cells” (Bioorg Med Chem Lett, 1996).

How the values were obtained:
Conditions in all cases: Homo sapiens
CCRF-CEM [1] = assay: Compound was evaluated for the cytotoxic concentration to inhibit HIV replication in CEM cells.; type: functional
CCRF-CEM [2] = assay: Compound was evaluated for the inhibition of HIV replication using HIV-1 infected CEM cells.; type: functional, cell-based
CCRF-CEM [3] = assay: Compound was evaluated for the inhibition of HIV replication using HIV-2 infected CEM cells.; type: functional, cell-based
CCRF-CEM [4] = assay: Compound was evaluated for the inhibition of HIV replication using HIV-2 infected CEM-TK- cells.; type: functional, cell-based

Row | Structure (SMILES) | CC50 (CCRF-CEM [1]) [nM] | EC50 (CCRF-CEM [2]) [nM] | EC50 (CCRF-CEM [3]) [nM] | EC50 (CCRF-CEM [4]) [nM]
1 | COC(=O)C(C)NP(=O)(OC[C@@H]1C=C[C@H](n2cc(C)c(=O)[nH]c2=O)O1)Oc1ccccc1 (stereo partly specified) | > 100000 | 85 | 102 | 75
2 | Cc1cn(C2C=CC(COP(=O)(NC(C)C(=O)OCc3ccccc3)Oc3ccccc3)O2)c(=O)[nH]c1=O (stereo unspecified) | 52000 | 22 | 39 | 60
3 | Cc1cn([C@H]2C=C[C@@H](CO)O2)c(=O)[nH]c1=O [STAVUDINE] | > 100000 | 160 | 270 | 25000
4 | Cc1cn([C@H]2C[C@H](N=[N+]=[N-])[C@@H](CO)O2)c(=O)[nH]c1=O [ZIDOVUDINE] | > 100000 | 5 | 8 | > 100000
